Experimental data from patent US8168646B2, “3,4-dihydroquinazoline derivatives” (Dongwoo Syntech Co., Ltd., priority 2007, dated 2012).

Legend:
[1] = tested on: human lung carcinoma (A-549); experiment: Growth inhibition, SRB assay, A-549; format: cell-based; conditions: A549, 72 hours, three independent experiments, read-out: Growth inhibition of cancer cell: GI50, A-549
Experimental: (§1) T-type calcium channel blocking effects of the compounds of the present invention were tested according to an electrophysiological whole-cell patch-clamp method, which uses mammalian HEK293 cell line selectively expressing α1G among T-type calcium channel encoding genes, wherein the α1G is mainly expressed at nerve cells (derived from […]), as described in Korean Patent No. 0610731 and Monteil, A., et al., J. Biol. Chem. 2000, 275, 6090-6100. Also, cytotoxicities of the compounds according to the present invention were tested according to a 3-(4,5-dimethylthiazol-2-yl)-2,5-diphenyltetrazolium bromide (MTT) assay. Further, growth inhibition effects against cancer cell lines of the compounds according to the present invention were tested according to a sulforhodamine B (SRB) assay, as disclosed in Skehan, P. et al., J. Natl Cancer Inst. 1990, 82, 1107-1112.
(§2) Experiment 3: Analysis for Growth Inhibition Against Cancer Cell Lines Using SRB Assay
(§3) The compounds according to the present invention were evaluated for their growth inhibition against five cancer cell lines, including human lung carcinoma (A-549), human prostate cancer (DU 145), human colon cancer (HT-29), human malignant melanoma (SK-MEL-2) and human ovarian cancer (SK-OV-3) using sulforhodamine B (SRB) assay. All cell lines were grown in RPMI 1640 (Gibco BRL) supplemented with 10% (v/v) heat-inactivated fetal bovine serum (FBS) and maintained at 37° C. in a humidified atmosphere with 5% CO2. The cells were seeded into 96-well plate. Various concentrations of compounds were added to each well in triplicate and then incubated at 37° C. with 5% CO2 for 72 hours such that cells are in the exponential phase of growth at the time of drug addition. After incubation, 100 μL of formalin solution was gently added to the wells. Microplates were left for 30 min at room temperature and washed five times with tap water. One hundred microliters of 0.4% SRB solution was added to each well and left at room temperature for 30 min. SRB was removed and the plates were washed five times with 1% acetic acid before air-drying. Bound SRB was solubilized with 100 μL of 10 mM unbuffered Tris-base solution (Sigma) and plates were left on a plate shaker for at least 10 min. The optical density was measured using a microplate reader (Versamax, Molecular Devices) with a 520 nm wavelength and the growth inhibition concentration was expressed as GI50.

[2] = tested on: human prostate cancer (DU 145); experiment: Growth inhibition, SRB assay, DU 145; format: cell-based; conditions: 72 hours, three independent experiments, read-out: Growth inhibition of cancer cell: GI50, DU 145
Experimental: as §1, §2, §3

[3] = tested on: human colon cancer (HT-29); experiment: Growth inhibition, SRB assay, HT-29; format: cell-based; conditions: for GI50: Homo sapiens, HT-29, SRB assay, 72 hours, three independent experiments, read-out: Growth inhibition of cancer cell: GI50, HT-29
Experimental: as §1, §2, §3

[4] = tested on: human malignant melanoma (SK-MEL-2); experiment: Growth inhibition, SRB assay, SK-MEL-2; format: cell-based; conditions: 72 hours, three independent experiments, read-out: Growth inhibition of cancer cell: GI50, SK-MEL-2
Experimental: as §1, §2, §3

[5] = tested on: human ovarian cancer (SK-OV-3); experiment: Growth inhibition, SRB assay, SK-OV-3; format: cell-based; conditions: 72 hours, three independent experiments, read-out: Growth inhibition of cancer cell: GI50, SK-OV-3
Experimental: as §1, §2, §3

[6] = target: T1, T-type calcium channel (α1G) (Homo sapiens, UniProt O43497); experiment: T-type calcium channel blocking, electrophysiological whole-cell patch-clamp in HEK293 cells expressing α1G; format: cell-based; conditions: dose-response curve, three independent experiments, read-out: Channel blocking effect (IC50) T-type (α1G)
T1 construct: expressed in transfected cells
Experimental: as §1
Experiment 1: Methods for Culturing HEK293 cells and measuring T-type Calcium Channel Activity Using an Electrophysiological Method
HEK293 cells were cultured in Dulbecco's modified Eagle's medium (DMEM) supplemented with 10% fetal bovine serum (FBS) and 1% penicillin/streptomycin (v/v) in 36.5° C. humidified incubator (95% air-5% CO2). […] The cells used for T-type calcium channel activity assay were cultured on a cover slip coated with poly-L-lysine (0.5 mg/mL) whenever sub-cultured, and their calcium channel activity was recorded 2 to 7 days after the cultivation. Current of the T-type calcium channel at a single cell level was measured according to an electrophysiological whole-cell patch-clamp method using EPC-9 amplifier (HEKA, Germany). […] Inward current caused by the T-type calcium channel activation which occurred when the cells were converted into a whole-cell recording mode by stabbing a microglass electrode having 3-4 MΩ resistance which was filled with the cell interior solution into a single cell and de-polarized at −30 mV (50 ms duration period) every 10 s with fixing membrane potential to −100 mV was measured according to a T-type calcium channel protocol activated at low current.

[7] = tested on: five cancer cell lines; experiment: Growth inhibition, SRB assay, five cancer cell lines overall; format: cell-based, human
Experimental: as §2
as §3, with “One hundred microliters of 0.4% SRB solution was added to each well and left at room temperature for 30 min. SRB was removed and the plates were washed five times with 1% acetic acid before air-drying. Bound SRB was solubilized with 100 μL of 10 mM unbuffered Tris-base solution (Sigma) and plates were left on a plate shaker for at least 10 min.” left out
The biological activities of doxorubicin and KYS05042 disclosed in Korean Patent No. 0610731 were evaluated as references, and the results are indicated in Table 2.

T1 sequence (O43497 whole entry): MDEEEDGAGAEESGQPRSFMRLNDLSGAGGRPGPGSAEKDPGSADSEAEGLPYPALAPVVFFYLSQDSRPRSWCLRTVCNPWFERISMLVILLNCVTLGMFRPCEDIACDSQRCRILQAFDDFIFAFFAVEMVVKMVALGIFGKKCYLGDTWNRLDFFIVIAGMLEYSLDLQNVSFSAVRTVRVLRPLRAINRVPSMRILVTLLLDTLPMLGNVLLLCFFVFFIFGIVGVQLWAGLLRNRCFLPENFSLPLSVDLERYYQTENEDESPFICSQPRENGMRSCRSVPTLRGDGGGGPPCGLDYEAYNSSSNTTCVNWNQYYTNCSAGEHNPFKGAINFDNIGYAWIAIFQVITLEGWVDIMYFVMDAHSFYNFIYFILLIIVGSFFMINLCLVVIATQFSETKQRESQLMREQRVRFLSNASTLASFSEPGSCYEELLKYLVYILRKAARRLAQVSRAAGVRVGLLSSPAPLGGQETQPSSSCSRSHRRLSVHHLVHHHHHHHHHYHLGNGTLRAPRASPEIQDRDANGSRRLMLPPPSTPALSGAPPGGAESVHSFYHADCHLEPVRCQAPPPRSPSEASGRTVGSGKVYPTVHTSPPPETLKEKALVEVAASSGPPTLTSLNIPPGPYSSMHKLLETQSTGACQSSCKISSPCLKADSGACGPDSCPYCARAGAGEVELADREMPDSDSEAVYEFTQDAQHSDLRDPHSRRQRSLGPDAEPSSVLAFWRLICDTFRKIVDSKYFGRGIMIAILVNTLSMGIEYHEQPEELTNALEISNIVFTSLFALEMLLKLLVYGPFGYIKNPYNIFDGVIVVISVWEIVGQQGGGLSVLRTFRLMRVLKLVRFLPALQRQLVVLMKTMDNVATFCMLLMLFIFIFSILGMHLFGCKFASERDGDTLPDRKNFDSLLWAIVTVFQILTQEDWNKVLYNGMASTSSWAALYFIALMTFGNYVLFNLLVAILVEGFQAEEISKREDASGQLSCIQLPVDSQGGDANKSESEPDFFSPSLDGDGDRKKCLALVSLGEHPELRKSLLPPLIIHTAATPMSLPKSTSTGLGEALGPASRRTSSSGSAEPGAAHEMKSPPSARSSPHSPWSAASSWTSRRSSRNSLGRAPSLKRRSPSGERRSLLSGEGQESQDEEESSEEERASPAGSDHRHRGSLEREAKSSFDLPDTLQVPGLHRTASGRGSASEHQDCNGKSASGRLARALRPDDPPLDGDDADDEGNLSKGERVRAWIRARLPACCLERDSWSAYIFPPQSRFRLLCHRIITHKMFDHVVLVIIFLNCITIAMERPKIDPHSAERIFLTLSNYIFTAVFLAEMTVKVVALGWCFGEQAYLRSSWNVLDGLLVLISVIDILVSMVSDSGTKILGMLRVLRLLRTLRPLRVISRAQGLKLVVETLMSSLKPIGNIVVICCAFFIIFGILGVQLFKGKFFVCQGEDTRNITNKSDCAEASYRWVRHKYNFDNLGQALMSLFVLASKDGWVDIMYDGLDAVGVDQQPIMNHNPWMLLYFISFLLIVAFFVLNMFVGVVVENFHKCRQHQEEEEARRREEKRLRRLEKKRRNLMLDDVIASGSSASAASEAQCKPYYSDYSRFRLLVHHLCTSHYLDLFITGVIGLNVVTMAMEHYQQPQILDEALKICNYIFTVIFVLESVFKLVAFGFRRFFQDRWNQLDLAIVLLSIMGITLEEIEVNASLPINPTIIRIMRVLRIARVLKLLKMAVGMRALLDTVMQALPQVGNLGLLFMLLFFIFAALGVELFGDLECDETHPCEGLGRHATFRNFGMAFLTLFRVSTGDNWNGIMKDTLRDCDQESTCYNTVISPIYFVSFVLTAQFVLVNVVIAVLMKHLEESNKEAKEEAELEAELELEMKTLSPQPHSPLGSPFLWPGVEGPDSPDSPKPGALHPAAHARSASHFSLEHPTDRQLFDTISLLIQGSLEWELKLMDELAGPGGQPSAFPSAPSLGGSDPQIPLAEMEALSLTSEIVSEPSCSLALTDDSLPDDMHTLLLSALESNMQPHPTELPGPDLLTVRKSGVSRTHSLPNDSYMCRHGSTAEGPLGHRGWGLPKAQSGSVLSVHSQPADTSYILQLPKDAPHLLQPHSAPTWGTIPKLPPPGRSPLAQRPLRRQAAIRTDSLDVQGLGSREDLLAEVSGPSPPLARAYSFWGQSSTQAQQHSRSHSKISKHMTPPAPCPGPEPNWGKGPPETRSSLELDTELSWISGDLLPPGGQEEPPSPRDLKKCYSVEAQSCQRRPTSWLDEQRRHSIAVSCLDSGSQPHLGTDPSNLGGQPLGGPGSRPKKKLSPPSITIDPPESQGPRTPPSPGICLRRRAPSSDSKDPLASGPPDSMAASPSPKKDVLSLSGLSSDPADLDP

| SMILES | GI50 [1] [nM] | GI50 [2] [nM] | GI50 [3] [nM] | GI50 [4] [nM] | GI50 [5] [nM] | IC50 [6] [nM] | Times stronger activity against human colon cancer cell line compared to KYS05042 ([3]; human colon cancer cell line, compared to KYS05042) | Times stronger activity against human colon cancer cell line compared to doxorubicin ([3]; human colon cancer cell line, compared to doxorubicin) | Times stronger growth inhibition compared to KYS05042 ([7]; compared to KYS05042) | Growth inhibition compared to doxorubicin ([7]; compared to doxorubicin) |
| --- | --- | --- | --- | --- | --- | --- | --- | --- | --- | --- |
| COc1cccc2c1C(=O)c1c(O)c3c(c(O)c1C2=O)C[C@@](O)(C(=O)CO)C[C@@H]3O[C@H]1C[C@H](N)[C@H](O)[C@H](C)O1 [Doxorubicin, doxorubicin, reference compound] | 160 ± 10 | 60 ± 10 | 210 ± 40 | 110 ± 10 | 120 ± 20 | – | – | – | – | – |
| CN(CCCCCN1CCCC1)C1=Nc2ccccc2C(CC(=O)NCc2ccccc2)N1c1ccc(-c2ccccc2)cc1 (stereo not drawn) [KYS05080] | 870 ± 180 | 2490 ± 530 | 610 ± 120 | 690 ± 150 | 2760 ± 760 | 260 ± 10 | – | – | – | – |
| COC(=O)CC1c2ccccc2N=C(N(C)CCCCCN(C)C)N1c1ccc(-c2ccccc2)cc1 (stereo not drawn) [KYS05089, 2-[N-(5-N′,N′-Dimethylaminopentyl)-N-Methylamino]-3-(4-Biphenylyl)-4-Methoxycarbonylmethyl-3,4-Dihydroquinazoline] | 1770 ± 160 | 1780 ± 170 | 520 ± 240 | 1910 ± 110 | 1950 ± 40 | 230 ± 30 | – | – | – | – |
| CN(C)CCCCCN(C)C1=Nc2ccccc2C(CC(=O)NCc2ccccc2)N1c1ccc(-c2ccccc2)cc1 (stereo not drawn) [KYS05090, 4-(N-Benzylacetamino)-3-(4-Biphenylyl)-2-[N-(5-N′,N′-Dimethylaminopentyl)-N-Methylamino]-3,4-Dihydroquinazoline] | 170 ± 20 | 190 ± 20 | 40 ± 10 | 480 ± 130 | 660 ± 130 | 41 ± 1 | about 40 times | about 5 times | about 10 times | nearly equipotent growth inhibition |
